{
  "source": "patent EP4289427A1",
  "about": "“DIHYDRO[1,8]NAPHTHYRIDIN-7-ONE AND PYRIDO[3,2-B][1,4]OXAZIN-3-ONE FOR USE IN TREATING CANCER, AND METASTASES IN PARTICULAR” (Anagenesis Biotechnologies, priority 2022, dated 2023)",
  "key": {"RD cells [1]": {"test_system": "RD cells", "test": "Cytotoxicity assay (CellTiter-Glo 2.0) on RD cells", "type": "cell-based, Human", "conditions": "for IC50: Homo sapiens", "summary_of_the_method": "(§1)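 Cells were seeded on day 0 in their own growth medium, then exposed to compounds for a line-dependent period. CellTiter-Glo 2.0 was added and left 10 min in the dark at room temperature, and luminescence from cellular ATP gave viability and relative IC50.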"}, "4T1 cells [2]": {"test_system": "4T1 cells", "test": "Cytotoxicity assay (CellTiter-Glo 2.0) on 4T1 cells", "type": "cell-based, Mouse", "conditions": "incubation 2 days; for IC50: Mus musculus, 48 h", "summary_of_the_method": "as §1"}, "MDA-MB-231 cells": {"test_system": "MDA-MB-231 cells", "test": "Cytotoxicity assay (CellTiter-Glo 2.0) on MDA-MB-231 cells", "type": "cell-based, Human", "conditions": "incubation 3 days; for IC50: Homo sapiens, 72 h", "summary_of_the_method": "as §1"}, "EoL-1 cells": {"test_system": "EoL-1 cells", "test": "Cytotoxicity assay (CellTiter-Glo 2.0) on EoL-1 cells", "type": "cell-based, Human", "conditions": "incubation 1 day; for IC50: Homo sapiens, EOL1, 24 h", "summary_of_the_method": "as §1"}, "HUVECs": {"test_system": "HUVECs", "test": "Tube formation assay (anti-angiogenic activity)", "type": "cell-based, human", "conditions": "incubation 16 to 18 hours; for IC50: Homo sapiens, HUVEC", "summary_of_the_method": "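HUVECs plated at 5000 cells/well on reduced growth factor basement membrane matrix, then exposed to compounds for 16 to 18 hours at 37°C. Cells stained with calcein-AM; tube networks imaged by confocal fluorescence microscopy and quantified.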"}, "4T1 cells [3]": {"test_system": "4T1 cells", "test": "Epithelial-mesenchymal transition marker expression by qRT-PCR", "type": "cell-based, Mouse", "design": "key: ↗: increased expression; ↘: decreased expression; =: unchanged expression levels", "conditions": "24 hours, expression normalized against RPL13", "description": "The epithelial-mesenchymal transition (hereafter \"EMT\") is a process by which epithelial cells lose their cell polarity and cell-cell adhesion while gaining migratory and invasive properties to become mesenchymal stem cells. EMT is commonly measured by quantifying both epithelial and mesenchymal marker's expression by quantitative reverse-transcription polymerase chain reaction (hereafter \"qRT-PCR\"). EMT inhibition is observed when epithelial markers are stable or increased while mesenchymal markers are decreased.\n4T1 cells were treated with compounds to be tested or DMSO for 24 hours. 4T1 cells were then harvested directly in NucleoZol lysis buffer (cat. no. 740404.200 from Macherey-Nagel), according to the manufacturer's instructions. Total RNA was extracted using the NucleoSpin RNA set for NucleoZol (cat. no. 740406.50 from Macherey-Nagel). The quantity and purity of RNA was determined using a Quickdrop (Molecular Devices). RT-PCR was performed on 500 ng total RNA using iScript gDNA clear cDNA synthesis Kit (cat.no. 1725035 from Biorad). The qPCR was run on a QuantStudio 5 real time thermocycler (Applied Biosystems), with PowerUp SYBR Green Master Mix (cat.no. A25742 from Fisher Scientific) and the primers listed in Table 16.\nExpression data of EMT markers have been normalized against expression data of the housekeeping gene RPL13."}, "RD cells [4]": {"test_system": "RD cells", "test": "Differentiation of RD cells into myotubes (alpha-actinin staining)", "type": "cell-based, Human", "conditions": "7 days, Figure 3", "method": "RD cells are cancer cells of muscle origin that arose from myogenic precursors that fail to complete muscle differentiation. One strategy to stop their progression is to differentiate them into myotubes.\nTo allow differentiation, RD cells were seeded at a density of 3500 cells/well in a 384-well plate coated with collagen type I, in DMEM (4,5g/L glucose) with L-Gln (cat.no. 41965-039 from Gibco) supplemented with 5% of knockout serum replacement (cat.no. 10828-028 from Gibco), 1% PenStrep (Gibco), 1% MEM NEAA (Gibco) and 0.1 mM 2-mercaptoethanol (Gibco) (hereafter \"K5 medium\"). Compounds to be tested were then added onto the cells and incubated for 7 days at 37°C. On day 7, cells were fixed with 4% paraformaldehyde solution and immunostained for α-actinin (cat.no. EA-53 from Sigma, at 1/30000)."}},
  "data": [
    {"molecule": "CSc1cc(Oc2ccnc3c2OCC(=O)N3)ccc1NC(=O)Nc1cc(C(C)(C)C)nn1-c1cncc(F)c1", "note": "[Compound 018, 1-[5-tert-butyl-2-(5-fluoro-3-pyridyl)pyrazol-3-yl]-3-[2-methylsulfanyl-4-[(3-oxo-4H-pyrido[3,2-b][1,4]oxazin-8-yl)oxy]phenyl]urea]", "values": [
      {"measurement": "Cytotoxicity", "setting": "RD cells [1]; 2 day-treatment", "value": "+ (20 % ≤ cytotoxicity < 50%)"},
      {"measurement": "Cytotoxicity", "setting": "RD cells [1]; 4 day-treatment", "value": "++ (50% ≤ cytotoxicity < 85%)"},
      {"measurement": "IC50", "setting": "RD cells [1]; 48 h, 2 day-treatment", "value": "1 to 5", "unit": "µM"},
      {"measurement": "IC50", "setting": "RD cells [1]; 96 h, 4 day-treatment", "value": "1 to 5", "unit": "µM"},
      {"measurement": "IC50", "setting": "4T1 cells [2]", "value": "< 1000", "unit": "nM"},
      {"measurement": "Cytotoxicity", "setting": "4T1 cells [2]", "value": "+++ (cytotoxicity ≥ 85%)"},
      {"measurement": "IC50", "setting": "MDA-MB-231 cells", "value": "1000 to 5000", "unit": "nM"},
      {"measurement": "Cytotoxicity", "setting": "MDA-MB-231 cells", "value": "++ (50% ≤ cytotoxicity < 85%)"},
      {"measurement": "IC50", "setting": "EoL-1 cells", "value": "1 to 10", "unit": "nM"},
      {"measurement": "Cytotoxicity", "setting": "EoL-1 cells", "value": "+++ (cytotoxicity ≥ 85%)"},
      {"measurement": "IC50", "setting": "HUVECs", "value": "< 100", "unit": "nM"},
      {"measurement": "Angiogenesis inhibition", "setting": "HUVECs", "value": "+++ (angiogenesis inhibition ≥ 80%)"},
      {"measurement": "Epithelial markers E-cadherin", "setting": "4T1 cells [3]", "value": "↗"},
      {"measurement": "Epithelial markers EpCAM", "setting": "4T1 cells [3]", "value": "↗"},
      {"measurement": "Mesenchymal markers Fibronectin", "setting": "4T1 cells [3]", "value": "↘"},
      {"measurement": "Mesenchymal markers Vimentin", "setting": "4T1 cells [3]", "value": "↘"},
      {"measurement": "differentiation into myotubes", "setting": "RD cells [4]", "value": "dose-dependent differentiation into myotubes"}
    ]},
    {"molecule": "CSc1cc(Oc2ccnc3c2OCC(=O)N3)ccc1NC(=O)Nc1cc(C(C)(C)C)on1", "note": "[Compound 021, 1-(5-tert-butylisoxazol-3-yl)-3-[2-methylsulfanyl-4-[(3-oxo-4H-pyrido[3,2-b][1,4]oxazin-8-yl)oxy]phenyl]urea]", "values": [
      {"measurement": "Cytotoxicity", "setting": "RD cells [1]; 2 day-treatment", "value": "++ (50% ≤ cytotoxicity < 85%)"},
      {"measurement": "Cytotoxicity", "setting": "RD cells [1]; 4 day-treatment", "value": "++ (50% ≤ cytotoxicity < 85%)"},
      {"measurement": "IC50", "setting": "RD cells [1]; 48 h, 2 day-treatment", "value": "1 to 5", "unit": "µM"},
      {"measurement": "IC50", "setting": "RD cells [1]; 96 h, 4 day-treatment", "value": "1 to 5", "unit": "µM"},
      {"measurement": "IC50", "setting": "4T1 cells [2]", "value": "1000 to 5000", "unit": "nM"},
      {"measurement": "Cytotoxicity", "setting": "4T1 cells [2]", "value": "++ (50% ≤ cytotoxicity < 85%)"},
      {"measurement": "IC50", "setting": "MDA-MB-231 cells", "value": "1000 to 5000", "unit": "nM"},
      {"measurement": "Cytotoxicity", "setting": "MDA-MB-231 cells", "value": "++ (50% ≤ cytotoxicity < 85%)"},
      {"measurement": "IC50", "setting": "EoL-1 cells", "value": "< 1", "unit": "nM"},
      {"measurement": "Cytotoxicity", "setting": "EoL-1 cells", "value": "+++ (cytotoxicity ≥ 85%)"},
      {"measurement": "IC50", "setting": "HUVECs", "value": "100 to 500", "unit": "nM"},
      {"measurement": "Angiogenesis inhibition", "setting": "HUVECs", "value": "+++ (angiogenesis inhibition ≥ 80%)"},
      {"measurement": "differentiation into myotubes", "setting": "RD cells [4]", "value": "dose-dependent differentiation into myotubes"}
    ]},
    {"molecule": "CSc1cc(Oc2ccnc3c2CCC(=O)N3)ccc1NC(=O)Nc1cc(C(C)(C)C)nn1-c1cccc(F)c1", "note": "[Compound 013, 1-[5-tert-butyl-2-(3-fluorophenyl)pyrazol-3-yl]-3-[2-methylsulfanyl-4-[(7-oxo-6,8-dihydro-5H-1,8-naphthyridin-4-yl)oxy]phenyl]urea]", "values": [
      {"measurement": "Cytotoxicity", "setting": "RD cells [1]; 2 day-treatment", "value": "++ (50% ≤ cytotoxicity < 85%)"},
      {"measurement": "Cytotoxicity", "setting": "RD cells [1]; 4 day-treatment", "value": "++ (50% ≤ cytotoxicity < 85%)"},
      {"measurement": "IC50", "setting": "RD cells [1]; 48 h, 2 day-treatment", "value": "1 to 5", "unit": "µM"},
      {"measurement": "IC50", "setting": "RD cells [1]; 96 h, 4 day-treatment", "value": "5 to 10", "unit": "µM"},
      {"measurement": "IC50", "setting": "4T1 cells [2]", "value": "< 1000", "unit": "nM"},
      {"measurement": "Cytotoxicity", "setting": "4T1 cells [2]", "value": "+++ (cytotoxicity ≥ 85%)"},
      {"measurement": "IC50", "setting": "MDA-MB-231 cells", "value": "1000 to 5000", "unit": "nM"},
      {"measurement": "Cytotoxicity", "setting": "MDA-MB-231 cells", "value": "++ (50% ≤ cytotoxicity < 85%)"},
      {"measurement": "IC50", "setting": "EoL-1 cells", "value": "1 to 10", "unit": "nM"},
      {"measurement": "Cytotoxicity", "setting": "EoL-1 cells", "value": "+++ (cytotoxicity ≥ 85%)"},
      {"measurement": "IC50", "setting": "HUVECs", "value": "< 100", "unit": "nM"},
      {"measurement": "Angiogenesis inhibition", "setting": "HUVECs", "value": "+++ (angiogenesis inhibition ≥ 80%)"},
      {"measurement": "differentiation into myotubes", "setting": "RD cells [4]", "value": "dose-dependent differentiation into myotubes"}
    ]}
  ]
}
